Measured values as given in patent US20060247129A1, “Surfactant compounds and agrochemical compositions” (Imperial Chemical Industries PLC, priority 2003, published 2006).

Legend:
Assay in all cases: glasshouse herbicide spray test, % weed control, adjuvant with glyphosate potassium salt
Format in all cases: in vivo
Conditions in all cases: 19 days after treatment
Solanum nigra = tested on: Solanum nigra
Experimental: (§1) The compound of Synthesis Example SE1 was tested as an adjuvant with glyphosate potassium salt, mixing the glyphosate and adjuvant in a tank mix using concentrations of glyphosate from 0.125 to 2 g.l-1 and of adjuvant from 0.003125 to 0.2% v/v. The tank mixes were sprayed as a herbicide on a variety of test species at an application rate of 200 l.ha^−1 to give application rates of glyphosate of from 25 to 400 g (active ingredient).ha^−1. The plants were grown in a warm glasshouse and assessed 19 days after treatment for % control—the mean of three replicates for visually assessed % weed control, relative to unsprayed plants of each species in the same test.
(§2) Example AE1 was repeated but using the compound made in Synthesis Example SE4 as the adjuvant.

Sorghum halepense = tested on: Sorghum halepense
Experimental: as §1, §2

Sida Spinosa = tested on: Sida Spinosa
Experimental: as §1, §2

Abutilon Theophrasti = tested on: Abutilon Theophrasti
Experimental: as §1, §2

Portulaca oleracea = tested on: Portulaca oleracea
Experimental: as §1, §2

Echinochloa crus-galli = tested on: Echinochloa crus-galli
Experimental: as §1, §2

[1] = glyphosate 50 g ai/ha, adjuvant 0.003125 % v/v
[2] = glyphosate 50 g ai/ha, adjuvant 0.0125 % v/v
[3] = glyphosate 50 g ai/ha, adjuvant 0.05 % v/v
[4] = glyphosate 50 g ai/ha, adjuvant 0.2 % v/v
[5] = glyphosate 100 g ai/ha, adjuvant 0.003125 % v/v
[6] = glyphosate 100 g ai/ha, adjuvant 0.0125 % v/v
[7] = glyphosate 100 g ai/ha, adjuvant 0.05 % v/v
[8] = glyphosate 100 g ai/ha, adjuvant 0.2 % v/v
[9] = glyphosate 200 g ai/ha, adjuvant 0.003125 % v/v
[10] = glyphosate 200 g ai/ha, adjuvant 0.0125 % v/v
[11] = glyphosate 200 g ai/ha, adjuvant 0.05 % v/v
[12] = glyphosate 200 g ai/ha, adjuvant 0.2 % v/v
[13] = glyphosate 400 g ai/ha, adjuvant 0.003125 % v/v
[14] = glyphosate 400 g ai/ha, adjuvant 0.0125 % v/v
[15] = glyphosate 400 g ai/ha, adjuvant 0.05 % v/v
[16] = glyphosate 400 g ai/ha, adjuvant 0.2 % v/v
[17] = glyphosate 25 g ai/ha, adjuvant 0.003125 % v/v
[18] = glyphosate 25 g ai/ha, adjuvant 0.0125 % v/v
[19] = glyphosate 25 g ai/ha, adjuvant 0.05 % v/v
[20] = glyphosate 25 g ai/ha, adjuvant 0.2 % v/v

Random 8-ethoxylate-2-propoxylate of N-methyl glucamine C13/C15 glycidyl ether [SE4]
% control SOLNI (Solanum nigra; [1]): 37%
% control SOLNI (Solanum nigra; [2]): 32%
% control SOLNI (Solanum nigra; [3]): 63%
% control SOLNI (Solanum nigra; [4]): 73%
% control SOLNI (Solanum nigra; [5]): 65%
% control SOLNI (Solanum nigra; [6]): 68%
% control SOLNI (Solanum nigra; [7]): 71%
% control SOLNI (Solanum nigra; [8]): 78%
% control SOLNI (Solanum nigra; [9]): 78%
% control SOLNI (Solanum nigra; [10]): 73%
% control SOLNI (Solanum nigra; [11]): 80%
% control SOLNI (Solanum nigra; [12]): 82%
% control SOLNI (Solanum nigra; [13]): 83%
% control SOLNI (Solanum nigra; [14]): 83%
% control SOLNI (Solanum nigra; [15]): 84%
% control SOLNI (Solanum nigra; [16]): 85%
% control SORHA (Sorghum halepense; [17]): 8%
% control SORHA (Sorghum halepense; [18]): 8%
% control SORHA (Sorghum halepense; [19]): 32%
% control SORHA (Sorghum halepense; [20]): 84%
% control SORHA (Sorghum halepense; [1]): 23%
% control SORHA (Sorghum halepense; [2]): 20%
% control SORHA (Sorghum halepense; [3]): 68%
% control SORHA (Sorghum halepense; [4]): 89%
% control SORHA (Sorghum halepense; [5]): 78%
% control SORHA (Sorghum halepense; [6]): 70%
% control SORHA (Sorghum halepense; [7]): 90%
% control SORHA (Sorghum halepense; [8]): 95%
% control SORHA (Sorghum halepense; [9]): 87%
% control SORHA (Sorghum halepense; [10]): 89%
% control SORHA (Sorghum halepense; [11]): 96%
% control SORHA (Sorghum halepense; [12]): 95%
% control SIDSP (Sida Spinosa; [1]): 30%
% control SIDSP (Sida Spinosa; [2]): 38%
% control SIDSP (Sida Spinosa; [3]): 38%
% control SIDSP (Sida Spinosa; [4]): 38%
% control SIDSP (Sida Spinosa; [5]): 37%
% control SIDSP (Sida Spinosa; [6]): 38%
% control SIDSP (Sida Spinosa; [7]): 52%
% control SIDSP (Sida Spinosa; [8]): 62%
% control SIDSP (Sida Spinosa; [9]): 50%
% control SIDSP (Sida Spinosa; [10]): 63%
% control SIDSP (Sida Spinosa; [11]): 77%
% control SIDSP (Sida Spinosa; [12]): 76%
% control SIDSP (Sida Spinosa; [13]): 76%
% control SIDSP (Sida Spinosa; [14]): 78%
% control SIDSP (Sida Spinosa; [15]): 78%
% control SIDSP (Sida Spinosa; [16]): 77%
% control ABUTH (Abutilon Theophrasti; [1]): 40%
% control ABUTH (Abutilon Theophrasti; [2]): 48%
% control ABUTH (Abutilon Theophrasti; [3]): 25%
% control ABUTH (Abutilon Theophrasti; [4]): 43%
% control ABUTH (Abutilon Theophrasti; [5]): 42%
% control ABUTH (Abutilon Theophrasti; [6]): 33%
% control ABUTH (Abutilon Theophrasti; [7]): 50%
% control ABUTH (Abutilon Theophrasti; [8]): 52%
% control ABUTH (Abutilon Theophrasti; [9]): 42%
% control ABUTH (Abutilon Theophrasti; [10]): 65%
% control ABUTH (Abutilon Theophrasti; [11]): 58%
% control ABUTH (Abutilon Theophrasti; [12]): 68%
% control ABUTH (Abutilon Theophrasti; [13]): 78%
% control ABUTH (Abutilon Theophrasti; [14]): 80%
% control ABUTH (Abutilon Theophrasti; [15]): 81%
% control ABUTH (Abutilon Theophrasti; [16]): 85%
% control POROC (Portulaca oleracea; [1]): 7%
% control POROC (Portulaca oleracea; [2]): 2%
% control POROC (Portulaca oleracea; [3]): 13%
% control POROC (Portulaca oleracea; [4]): 35%
% control POROC (Portulaca oleracea; [5]): 8%
% control POROC (Portulaca oleracea; [6]): 18%
% control POROC (Portulaca oleracea; [7]): 43%
% control POROC (Portulaca oleracea; [8]): 46%
% control POROC (Portulaca oleracea; [9]): 28%
% control POROC (Portulaca oleracea; [10]): 36%
% control POROC (Portulaca oleracea; [11]): 45%
% control POROC (Portulaca oleracea; [12]): 50%
% control POROC (Portulaca oleracea; [13]): 42%
% control POROC (Portulaca oleracea; [14]): 47%
% control POROC (Portulaca oleracea; [15]): 63%
% control POROC (Portulaca oleracea; [16]): 81%
% control ECHCG (Echinochloa crus-galli; [17]): 12%
% control ECHCG (Echinochloa crus-galli; [18]): 15%
% control ECHCG (Echinochloa crus-galli; [19]): 51%
% control ECHCG (Echinochloa crus-galli; [20]): 53%
% control ECHCG (Echinochloa crus-galli; [1]): 32%
% control ECHCG (Echinochloa crus-galli; [2]): 35%
% control ECHCG (Echinochloa crus-galli; [3]): 68%
% control ECHCG (Echinochloa crus-galli; [4]): 91%
% control ECHCG (Echinochloa crus-galli; [5]): 78%
% control ECHCG (Echinochloa crus-galli; [6]): 83%
% control ECHCG (Echinochloa crus-galli; [7]): 90%
% control ECHCG (Echinochloa crus-galli; [8]): 98%
% control ECHCG (Echinochloa crus-galli; [9]): 90%
% control ECHCG (Echinochloa crus-galli; [10]): 89%
% control ECHCG (Echinochloa crus-galli; [11]): 95%
% control ECHCG (Echinochloa crus-galli; [12]): 98%
